{"source": "ChEMBL document CHEMBL5370551", "about": "“Inside PD-1/PD-L1,2 with their inhibitors” (Eur J Med Chem, 2023)", "key": {"[1]": {"biological_target": "T1, Programmed cell death protein 1/Programmed cell death 1 ligand 1 (Homo sapiens, UniProt Q15116+Q9NZQ7)", "T1 sequence (Q15116 whole entry, the tested form may be a part)": "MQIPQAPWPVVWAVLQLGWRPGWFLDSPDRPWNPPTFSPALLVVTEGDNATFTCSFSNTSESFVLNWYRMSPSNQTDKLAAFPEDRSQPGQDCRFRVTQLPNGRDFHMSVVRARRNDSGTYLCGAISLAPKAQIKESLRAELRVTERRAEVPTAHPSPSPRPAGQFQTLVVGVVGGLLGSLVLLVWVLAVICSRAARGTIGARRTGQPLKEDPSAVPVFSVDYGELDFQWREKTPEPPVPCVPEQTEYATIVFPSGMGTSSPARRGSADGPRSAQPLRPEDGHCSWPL", "T1 sequence (Q9NZQ7 whole entry, the tested form may be a part)": "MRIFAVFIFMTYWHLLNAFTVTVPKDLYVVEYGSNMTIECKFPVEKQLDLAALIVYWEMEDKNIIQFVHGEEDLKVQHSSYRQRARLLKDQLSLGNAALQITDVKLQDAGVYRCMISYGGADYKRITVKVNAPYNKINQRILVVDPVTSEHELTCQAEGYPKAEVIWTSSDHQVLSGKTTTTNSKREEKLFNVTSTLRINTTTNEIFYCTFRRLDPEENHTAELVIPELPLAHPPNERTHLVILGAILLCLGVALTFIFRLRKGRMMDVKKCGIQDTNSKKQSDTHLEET", "assay": "Inhibition of Fc-fused recombinant human PD-I/His-tagged recombinant human PD-L1 interaction incubated overnight by HTRF assay", "type": "protein-complex assay"}, "PD1-PDL2 [2]": {"biological_target": "T2, PD1-PDL2 (Homo sapiens, UniProt Q15116+Q9BQ51)", "T2 sequence (Q15116 whole entry)": "as the sequence (Q15116 whole entry, the tested form may be a part) above", "T2 sequence (Q9BQ51 whole entry)": "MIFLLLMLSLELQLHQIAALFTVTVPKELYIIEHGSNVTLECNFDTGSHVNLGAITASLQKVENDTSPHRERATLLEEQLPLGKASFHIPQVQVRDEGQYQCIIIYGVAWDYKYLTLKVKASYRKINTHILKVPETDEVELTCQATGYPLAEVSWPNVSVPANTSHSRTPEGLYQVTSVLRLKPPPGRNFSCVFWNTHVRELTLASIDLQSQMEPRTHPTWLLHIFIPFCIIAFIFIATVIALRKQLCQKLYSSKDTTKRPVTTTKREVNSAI", "assay": "Inhibition of PD-I/PD-L2 interaction (unknown origin) expressed in HEK293 cells", "type": "cell-based"}, "PD1-PDL2 [3]": {"biological_target": "T2, PD1-PDL2", "assay": "Inhibition of PD-I/PD-L2 interaction (unknown origin) expressed in human […] cells", "type": "cell-based"}, "[4]": {"biological_target": "T1, Programmed cell death protein 1/Programmed cell death 1 ligand 1", "assay": "Inhibition of PD-1/PD-L1 interaction (unknown origin) at 25 uM by AlphaLISA assay relative to control", "type": "protein-complex assay"}, "[5]": {"biological_target": "T1, Programmed cell death protein 1/Programmed cell death 1 ligand 1", "assay": "Inhibition of PD-1/PD-L1 interaction (unknown origin) by HTRF assay", "type": "protein-complex assay"}, "[6]": {"biological_target": "T1, Programmed cell death protein 1/Programmed cell death 1 ligand 1", "assay": "Inhibition of PD-I/PD-L1 interaction (unknown origin) by HTRF assay", "type": "protein-complex assay"}, "[7]": {"assay": "Cytotoxicity against human MDA-MB-231 cells assessed as reduction in cell growth by MTT assay", "type": "toxicity, cell-based"}, "B16-F10 [8]": {"tested_on": "B16-F10", "assay": "Antitumor activity against mouse B16-F10 expressing human PD-L1 allografted in C57BL/6 mouse assessed as inhibition of tumor growth at 10 mg/kg, ip administered every 2 days for 24 days relative to control", "type": "functional", "details": "B16-F10, 48 h, time 2 day"}, "B16-F10 [9]": {"tested_on": "B16-F10", "assay": "Antitumor activity against mouse B16-F10 expressing human PD-L1 allografted in C57BL/6 mouse assessed as inhibition of tumor growth at 10 mg/kg, ip administered every 3 days for 24 days relative to control", "type": "functional", "details": "B16-F10, 72 h, time 3 day"}, "[10]": {"assay": "Oral bioavailability in mouse", "type": "ADME, organism-based", "details": "in vivo"}, "[11]": {"biological_target": "Programmed cell death 1 ligand 1 (Homo sapiens) (UniProt Q9NZQ7)", "sequence (Q9NZQ7 whole entry, the tested form may be a part)": "as the sequence (Q9NZQ7 whole entry, the tested form may be a part) above", "assay": "Induction of PD-L1 degradation in human NCI-H292 at 20 uM relative to control", "type": "cell-based"}, "NCI-H292": {"tested_on": "NCI-H292", "assay": "Cytotoxicity against human NCI-H292 cells assessed as inhibition of cell growth", "type": "functional, cell-based"}, "[12]": {"biological_target": "Programmed cell death 1 ligand 1 (Homo sapiens) (UniProt Q9NZQ7)", "assay": "Inhibition of human recombinant extracellular domain PD-L1 in human DU-145 cells incubated for 1 hr relative to control", "type": "cell-based", "details": "concentration not given here"}, "[13]": {"biological_target": "T1, Programmed cell death protein 1/Programmed cell death 1 ligand 1", "assay": "Inhibition of biotinylated human PD-I/human PD-L1 interaction at 100 uM incubated for 2 hrs by ELISA relative to control", "type": "protein-complex assay"}, "[14]": {"biological_target": "T1, Programmed cell death protein 1/Programmed cell death 1 ligand 1", "assay": "Inhibition of biotinylated human PD-I /His-tagged PD-L1 (unknown origin) interaction incubated for 90 mins in dark condition by AlphaLISA assay", "type": "protein-complex assay"}, "[15]": {"biological_target": "T1, Programmed cell death protein 1/Programmed cell death 1 ligand 1", "assay": "Inhibition of PD-I/PD-L1 interaction (unknown origin)", "type": "protein-complex assay"}, "[16]": {"biological_target": "T1, Programmed cell death protein 1/Programmed cell death 1 ligand 1", "assay": "Inhibition of PD-I/PD-L1 interaction (unknown origin) by ELISA", "type": "protein-complex assay"}}, "note": "Residues, ends and D or L forms follow the SMILES beside them.", "data": [{"smiles": "Cc1c(NC(=O)c2ccc(CNCCO)cn2)cccc1-c1cccc(NC(=O)c2ccc(CNCCO)cn2)c1C", "values": [{"measurement": "IC50", "setting": "[1]", "result": "[…]"}]}, {"smiles": "CC[C@H](C)[C@H](NC(=O)[C@H](CCC(N)=O)NC(=O)[C@H](C)NC(=O)[C@H](CCCCN)NC(=O)[C@@H]1CCCN1C(=O)[C@H](C)NC(=O)[C@H](CC(C)C)NC(=O)[C@H](CCC(N)=O)NC(=O)[C@@H](NC(=O)[C@@H](NC(=O)[C@H](CCCNC(=N)N)NC(=O)[C@H](Cc1ccccc1)NC(=O)[C@H](CCCCNC(=O)[C@H](Cc1ccccc1)NC(=O)[C@H](CO)NC(=O)[C@H](CCC(=O)O)NC(=O)[C@H](CO)NC(=O)[C@@H](NC(=O)[C@H](CC(N)=O)NC(=O)[C@@H](N)CO)[C@@H](C)O)NC(=O)[C@H](Cc1ccccc1)NC(=O)[C@H](CO)NC(=O)[C@H](CCC(=O)O)NC(=O)[C@H](CO)NC(=O)[C@@H](NC(=O)[C@H](CC(N)=O)NC(=O)[C@@H](N)CO)[C@@H](C)O)C(C)C)[C@@H](C)O)C(=O)N[C@@H](CCCCN)C(=O)N[C@@H](CCC(=O)O)C(N)=O", "values": [{"measurement": "EC50", "setting": "PD1-PDL2 [2]", "result": 0.72, "unit": "nM"}, {"measurement": "EC50", "setting": "PD1-PDL2 [3]", "result": 0.41, "unit": "nM"}]}, {"smiles": "Cc1cc(/C=C/c2ccc3cc(N(C)C)ccc3[n+]2C)c(C)n1-c1ccccc1", "values": [{"measurement": "inhibition", "setting": "[4]", "result": 44.5, "unit": "%"}, {"measurement": "IC50", "setting": "[5]", "result": 30000, "unit": "nM"}]}, {"smiles": "COc1nc(-c2cccc(-c3ccccc3F)c2C)ccc1CNCCC(N)=O", "values": [{"measurement": "IC50", "setting": "[6]", "result": 0.9, "unit": "nM"}, {"measurement": "EC50", "setting": "[7]", "result": 11100, "unit": "nM"}]}, {"smiles": "NC(=O)c1ccccc1NC(=O)c1ccc(-c2ccccc2)cc1", "values": [{"measurement": "inhibition in vivo at 10 mg/kg", "setting": "B16-F10 [8]", "result": 62, "unit": "%"}, {"measurement": "inhibition in vivo at 10 mg/kg", "setting": "B16-F10 [9]", "result": 66, "unit": "%"}]}, {"smiles": "CC1=C(C(=O)OCc2ccccc2)C(CC(C)(C)C)C(C(=O)OCc2ccccc2)=C(C)N1", "values": [{"measurement": "bioavailability", "setting": "[10]", "result": 25, "unit": "%"}, {"measurement": "Activity", "setting": "[11]", "result": 67, "unit": "%"}, {"measurement": "IC50", "setting": "NCI-H292", "result": 62000, "unit": "nM"}]}, {"smiles": "CC(C)C[C@H](NC(=O)[C@H](CC(N)=O)NC(=O)[C@H](Cc1c[nH]c2ccccc12)NC(=O)[C@@H](NC(=O)[C@H](Cc1ccc(O)cc1)NC(=O)[C@H](Cc1ccc(O)cc1)NC(=O)[C@H](CO)NC(=O)[C@H](CCCNC(=N)N)NC(=O)[C@H](Cc1c[nH]cn1)NC(=O)[C@@H](N)Cc1c[nH]c2ccccc12)[C@@H](C)O)C(=O)N[C@@H](CC(N)=O)C(=O)N[C@H](C(=O)O)[C@@H](C)O", "note": "(H-WHRSYYTWNLNT-OH)", "values": [{"measurement": "inhibition", "setting": "[12]", "result": 80, "unit": "%"}]}, {"smiles": "O=C(c1cc2ccccc2[nH]1)N1CCN(Cc2csc(-c3ccccc3)n2)CC1", "values": [{"measurement": "inhibition", "setting": "[13]", "result": 21, "unit": "%"}]}, {"smiles": "CO[C@H]1/C=C/O[C@@]2(C)Oc3c(C)c(O)c4c(c3C2=O)C2=NC3(CCN(CC(C)C)CC3)NC2=C(NC(=O)/C(C)=C\\C=C\\[C@H](C)[C@H](O)[C@@H](C)[C@@H](O)[C@@H](C)[C@H](OC(C)=O)[C@@H]1C)C4=O", "note": "[RIFABUTIN]", "values": [{"measurement": "IC50", "setting": "[14]", "result": 25000, "unit": "nM"}]}, {"smiles": "Cc1c(COc2ccc(CN[C@H](CO)C(=O)O)c(OCc3cccc(C#N)c3)c2)cccc1-c1ccc2c(c1)OCCO2", "values": [{"measurement": "IC50", "setting": "[15]", "result": 2.25, "unit": "nM"}]}, {"smiles": "CSCC[C@H](NC(=O)[C@H](CC(=O)O)NC(=O)[C@H](Cc1ccccc1)NC(=O)[C@H](CCCNC(=N)N)NC(=O)[C@H](Cc1ccc(O)cc1)NC(=O)[C@H](CC(=O)O)NC(=O)[C@H](CCCNC(=N)N)NC(=O)[C@H](Cc1c[nH]c2ccccc12)NC(=O)[C@@H](NC(=O)[C@H](Cc1c[nH]c2ccccc12)NC(=O)[C@@H](N)CCCNC(=N)N)C(C)C)C(=O)NCC(=O)N[C@@H](Cc1ccccc1)C(=O)N[C@@H](CC(=O)O)C(=O)N[C@@H](Cc1c[nH]c2ccccc12)C(=O)N[C@H](C(=O)N[C@@H](Cc1c[nH]c2ccccc12)C(=O)N[C@@H](CCC(=O)O)C(=O)O)C(C)C", "note": "(H-RWVWRDYRFDMGFDWVWE-OH)", "values": [{"measurement": "IC50", "setting": "[16]", "result": 600, "unit": "nM"}]}]}
